{"source": "patent US20010034373A1", "about": "“Low dose modafinil for enhancement of cognitive function” (priority 2000, published 2001)", "key": {"aged male Wistar rats": {"tested_on": "aged male Wistar rats", "details": "rat, in vivo"}, "aged rats": {"tested_on": "aged rats", "experiment": "performance of a stabilized delayed alternation task at three retention delays in aged rats", "assay_type": "in vivo, rat", "set-up": "dose or concentration left out as unconfirmed", "details": "15, 30 or 60 modafinil", "experimental": "In another study, aged rats were tested for performance of a stabilized delayed alternation task at three retention delays. After stabilized performance in training sessions the rats were entered into a drug testing study with […] of modafinil. A trial started with the presentation of a single lever (left or right). […] After the expiration of the delay, the 2 levers were inserted into the chamber and the animal received a food pellet only if it pressed the lever not previously presented (delayed alternation). Incorrect responses (responses on the same lever) were not reinforced. The 3 delays were randomly presented and equally distributed throughout the session. Correct or incorrect responses were followed by retraction of the two levers. […] The test results indicated the response accuracy of the animal after each retention delay, the simple reaction time in the one lever presentation, and the choice reaction time in the two lever presentation. […] Therefore, modafinil had no effect on improving short term memory at these doses."}, "adult humans": {"tested_on": "adult humans", "experiment": "wakefulness promoting dose extrapolated to adult humans", "assay_type": "in vivo, human", "details": "extrapolation in adult humans", "experimental": "The dosage levels in rats in the studies described herein are reported in mg/kg administered by intraperitoneal injection (i.p.). As described in previous publications, the wakefulness promoting dose of modafinil in rats is highly significant at doses of 100 to 300 mg/kg i.p. (Edgar and Seidel, The Journal of Pharmacology and Experimental Therapeutics, vol. 283, pp 757-769, 1997). The extrapolation in adult humans is a wakefulness promoting dose of 200 mg/day. A dose of 200 mg to an adult human would result in a serum level of about 6.4 μg/ml. […] An effective dose, therefore, is a dose given as a single unit per day in a sustained release formula or given periodically would be that dose that maintains a serum level of from about 0.05 to about 2 μg/ml."}, "[1]": {"details": "dose of 200 mg to an adult human; cited from earlier work"}}, "note": "“Also recorded” adds a separate entry of the source.", "data": [{"compound": "NC(=O)C[S+]([O-])C(c1ccccc1)c1ccccc1", "note": "(centres unmarked) [Modafinil, 2-(benzhydrylsulfinyl) acetamide]", "values": [{"measurement": "choice reaction times", "setting": "aged male Wistar rats", "result": "significantly decreased"}, {"measurement": "general ability of animals to perform the task", "setting": "aged male Wistar rats", "result": "failed to improve"}, {"measurement": "number of correct responses", "setting": "aged male Wistar rats", "result": "No effects"}, {"measurement": "number of correct responses (response accuracy)", "setting": "aged male Wistar rats", "result": "significantly increased"}, {"measurement": "number of response omissions", "setting": "aged male Wistar rats", "result": "significantly increased"}, {"measurement": "simple reaction times", "setting": "aged male Wistar rats", "result": "No clear effects; also recorded: tended to increase"}, {"measurement": "cognitive function in aged rats", "setting": "aged male Wistar rats; 60 mg/kg", "result": "restored cognitive function in the aged rats to the level of the young control rats"}, {"measurement": "effect on improving short term memory", "setting": "aged rats", "result": "no effect"}, {"measurement": "number of correct responses at any retention delay", "setting": "aged rats; retention delays 5, 10 or 20 seconds", "result": "did not significantly affect"}, {"measurement": "wakefulness promoting dose", "setting": "adult humans", "result": 200, "unit": "mg/day"}, {"measurement": "serum level", "setting": "[1]", "result": "about 6.4 μg/ml"}]}]}
